Consider one molecule from patent US12529101B2, “Methods and reagents for characterizing genomic editing, clonal expansion, and associated applications” (TwinStrand Biosciences, Inc., priority 2018, dated 2026).

One series has as its system human HRAS transgene. Put plainly: Duplex Sequencing detection of clonally expanded cancer driver mutations after urethane dosing. It counts as in vivo, mouse. An excerpt:
(§1) In this example, the impact of urethane is examined in different mouse tissue types (lung, spleen, blood) in an FDA-accepted cancer-predisposed mouse model: Tg.rasH2 (Saitoh et al. Oncogene 1990. PMID 2202951). This mouse contains ˜3 tandem copies of human HRAS with an activating enhancer mutation to boost expression on one hemizygous allele. These mice are predisposed to splenic angiosarcomas and lung adenocarcinomas, and are routinely used for 6 month carcinogenicity studies to substitute for 2 year wild-type animal studies. Tumors found in the mice have usually acquired activating mutations in one copy of the human HRAS protooncogene. Thus, the human HRAS transgene serves a model target cancer driver gene in these animals. Sequence analysis and mutation detection was performed for 4 native mouse genes (Rho, Hp, Ctnnb1, Polr1c), along with the native mouse Hras, Kras, Nras and human HRAS transgene.
(§2) In this example, Tg.rasH2 mice (n=5/group) were dosed with vehicle or a model mutation-inducing agent (e.g., a carcinogenic dose of urethane) (day 1,3,5) and sacrificed on day 29 for mutation detection by Duplex Sequencing in target tissues (lung, spleen) and whole blood. Target endogenous genes (Rho, Hp, Ctnnb1, Polr1c) and the native mouse Hras and human HRAS (trans)genes were also sequenced.

The test system of another series is Tg.rasH2 mice. Put plainly: Duplex Sequencing of mutation induction and mutation spectrum in lung, spleen and blood. Format: in vivo, mouse.
Source text: as §1, §2

On to `CCOC(N)=O` [urethane], for which the “treated spleen samples with mutations in human HRAS codon 61” value in the series on human HRAS transgene (Tg.rasH2 mice, day 29, spleen, one at the same position, one on an adjoining base pair) is given as “two”. Further, the “urethane treated lung samples with the human HRAS codon 61 T>A mutation” value with human HRAS transgene (Tg.rasH2 mice, n=5/group, day 29, lung) is on record as 4/5. Moreover, in the series on human HRAS transgene (Tg.rasH2 mice, n=5/group, spleen), the “urethane-treated splenic samples with T>A transversion at the human oncogenic HRAS codon 61 hotspot” value is reported as 1/5. In addition, in the series with human HRAS transgene (by calculation, 29 days, assuming no cell death), the “doubling time of the selected clone cells” value is recorded as about 1.8 days. For the same molecule, the “variant allele frequencies of the codon 61 mutation in exon 3 of human HRAS” value in the series on human HRAS transgene (urethane treated lung samples, Tg.rasH2 mice, day 29, T→A transversions in the context CTG) is recorded as 0.1%-1.8. In addition, the “cells encompassed by the highest allele fraction clone” value with human HRAS transgene (within the 29 days of the study) was “more than 90,000 cells”. In addition, in the series with Tg.rasH2 mice (compared with spleen), the “mutation induction in peripheral blood” value is recorded as “closely mirrored that seen in the spleen”. Also, the triplet mutation spectrum result in the series with Tg.rasH2 mice (distinguishable from the vehicle control) is “strong propensity for T→A and T→C mutations within the context of “NTG””. Moreover, the “tissue-specific variations in the extent of mutation induction” value in the series on Tg.rasH2 mice (lung, spleen, blood) is “lung being observed to be more mutation prone than spleen and blood”.
